In patent US9625449B2, “Determining the bioavailability of zinc (II) ions” (Colgate-Palmolive Company, priority 2014, dated 2017):

What was measured:
Assay type in all cases: physicochemical
[1] = Reaction of zincon with metal ions (colour change): Mg2+; conditions: solution with Mg^2+
Source text: (§1) Certain dyes used to detect zinc ions also react with other metal ions. For example, Eriochrome Black T reacts with Mg^2+ and Ca^2+ ions, which are commonly encountered in biological tissues. Sources of calcium ions are frequently included in oral care compositions.

[2] = Reaction of zincon with metal ions (colour change): Ca2+; conditions: solution with Ca^2+
Source text: as §1

[3] = Reaction of zincon with metal ions (colour change): Fe2+; conditions: solution with Fe^2+
Source text: as §1

[4] = Reaction of zincon with metal ions (colour change): Co2+; conditions: solution with Co^2+
Source text: as §1

[5] = Reaction of zincon with metal ions (colour change): Cu2+; conditions: solution with Cu^2+
Source text: as §1

[6] = Reaction of zincon with metal ions (colour change): Zn2+; conditions: solution with Zn^2+
Source text: as §1

[7] = Absorbance of zincon as function of pH (detection of zinc)
Source text: It has been reported in the literature that the working pH range for zincon is pH 8.5 to 9.5 (Yoe and Rush, 1952. “A new colorimetric reagent for zinc”, Analytica Chimica Acta, vol. 6, pp 526 to 527).

colour change of zincon [1]: did not undergo a colour change
colour change of zincon [2]: did not undergo a colour change
colour change of zincon [3]: green solution
colour change of zincon [4]: sky blue solution
colour change of zincon [6]: deep blue complex
Absorbance of sample at 610 nm ([7]; pH 7.0): 0.233
Absorbance of sample at 610 nm ([7]; pH 7.5): 0.232
Absorbance of sample at 610 nm ([7]; pH 8.0): 0.245
Absorbance of sample at 610 nm ([7]; pH 8.5): 0.251
Absorbance of sample at 610 nm ([7]; pH 9.5): 0.252
SMILES: O=C(O)c1ccccc1N=NC(=NNc1cc(S(=O)(=O)[O-])ccc1O)c1ccccc1.[Na+] [zincon, o-[α-(2-hydroxy-5-sulfophenylazo)-benzylidene hydrazino]benzoic acid]
colour change of zincon [5]: difficult to distinguish from that of Zn^2+
